Measurements as given in US10645928B2, “Pesticidally active polycyclic derivatives with sulfur containing substituents” (Syngenta Participations AG, priority 2014, dated 2020).

Experiments:
Format in all cases: in vivo
[1] = system: Euschistus heros (Neotropical Brown Stink Bug); experiment: Example B6: Euschistus heros, sprayed soybean leaves, mortality and growth inhibition; settings: 120 h, application rate of 200 ppm, N2 nymphs, 5 days after infestation, read-out: effect in at least one of the two categories (mortality or growth inhibition)
Procedure: Soybean leaves on agar in 24-well microtiter plates were sprayed with aqueous test solutions prepared from 10,000 ppm DMSO stock solutions. After drying the leaves were infested with N2 nymphs. The samples were assessed for mortality and growth inhibition in comparison to untreated samples 5 days after infestation.

[2] = system: Spodoptera littoralis (Egyptian Cotton Leaf Worm); experiment: Example B20: Spodoptera littoralis, compound in agar absorbed by lettuce roots, mortality; settings: 144 h, test rate of 12.5 ppm, uptake by lettuce roots, Spodoptera eggs, 6 days after infestation
Source text: Test compounds were applied by pipette prepared from 10,000 ppm DMSO stock solutions into 24-well plates and mixed with agar. Lettuce seeds were placed onto the agar and the multi well plate was closed by another plate which contained also agar. After 7 days the compound was absorbed by the roots and the lettuce grew into the lid plate. The lettuce leaves were then cut off into the lid plate.
Spodoptera eggs were pipetted through a plastic stencil onto a humid gel blotting paper and the lid plate was closed with it. The samples were assessed for mortality 6 days after infestation.

[3] = system: Spodoptera littoralis (Egyptian Cotton Leaf Worm); experiment: Example B14: Spodoptera littoralis, sprayed cotton leaf discs, anti-feeding effect; settings: foliar, 72 h, application rate of 200 ppm, L1 larvae, 3 days after infestation
Procedure: Cotton leaf discs were placed onto agar in 24-well microtiter plates and sprayed with aqueous test solutions prepared from 10,000 ppm DMSO stock solutions. After drying the leaf discs were infested with five L1 larvae. The samples were assessed for anti-feeding effect in comparison to untreated samples 3 days after infestation. Control of Spodoptera littoralis by a test sample is given when the anti-feedant effect is higher than the untreated sample.

[4] = system: Aedes aegypti (Yellow Fever Mosquito); experiment: Example B23: Aedes aegypti, dry deposits in 12 well tissue culture plates, control; settings: application rate of 200 ppm in ethanol, adult females, after 48 h and/or 24 h
Procedure: Test solutions, at an application rate of 200 ppm in ethanol, were applied to 12 well tissue culture plates. Once the deposits were dry, five, two to five day old adult female Aedes aegypti were added to each well, and sustained with a 10% sucrose solution in a cotton wool plug. Assessment of knockdown was made one hour after introduction, and mortality was assessed at 24 and 48 hours after introduction.

[5] = system: Euschistus heros (Neotropical Brown Stink Bug); experiment: Example B5: Euschistus heros, sprayed soybean leaves, mortality; settings: 120 h, application rate of 200 ppm, N2 nymphs, 5 days after infestation
Procedure: Soybean leaves on agar in 24-well microtiter plates were sprayed with aqueous test solutions prepared from 10,000 ppm DMSO stock solutions. After drying the leaves were infested with N2 nymphs. The samples were assessed for mortality 5 days after infestation.

[6] = system: Spodoptera littoralis (Egyptian Cotton Leaf Worm); experiment: Example B19: Spodoptera littoralis, compound in agar absorbed by lettuce roots, anti-feedant effect; settings: 144 h, test rate of 12.5 ppm, uptake by lettuce roots, Spodoptera eggs, 6 days after infestation, read-out: anti-feeding
Source text: (§1) Test compounds were applied by pipette prepared from 10,000 ppm DMSO stock solutions into 24-well plates and mixed with agar. Lettuce seeds were placed onto the agar and the multi well plate was closed by another plate which contained also agar. After 7 days the compound was absorbed by the roots and the lettuce grew into the lid plate. The lettuce leaves were then cut off into the lid plate. Spodoptera eggs were pipetted through a plastic stencil onto a humid gel blotting paper and the lid plate was closed with it. The samples were assessed for anti-feedant effect in comparison to untreated samples 6 days after infestation.

[7] = system: Spodoptera littoralis (Egyptian Cotton Leaf Worm); experiment: Example B16: Spodoptera littoralis, sprayed cotton leaf discs, mortality; settings: foliar, 72 h, application rate of 200 ppm, L1 larvae, 3 days after infestation
Procedure: (§2) Cotton leaf discs were placed onto agar in 24-well microtiter plates and sprayed with aqueous test solutions prepared from 10,000 ppm DMSO stock solutions. After drying the leaf discs were infested with five L1 larvae. The samples were assessed for mortality 3 days after infestation.

[8] = system: Diabrotica balteata (Corn Root Worm); experiment: Example B2: Diabrotica balteata, sprayed maize sprouts, mortality and growth inhibition; settings: 96 h, application rate of 200 ppm, L2 larvae, 4 days after infestation, read-out: effect in at least one of the two categories (mortality or growth inhibition)
Procedure: (§3) Maize sprouts placed onto an agar layer in 24-well microtiter plates were treated with aqueous test solutions prepared from 10,000 ppm DMSO stock solutions by spraying. After drying, the plates were infested with L2 larvae (6 to 10 per well). The samples were assessed for mortality and growth inhibition in comparison to untreated samples 4 days after infestation.

[9] = system: Spodoptera littoralis (Egyptian Cotton Leaf Worm); experiment: Example B18: Spodoptera littoralis, compound in agar absorbed by lettuce roots, mortality, anti-feedant effect and growth inhibition; settings: 144 h, test rate of 12.5 ppm, uptake by lettuce roots, Spodoptera eggs, 6 days after infestation, read-out: effect in at least one of the three categories (mortality, anti-feeding, or growth inhibition)
Source text: as §1, with “pipette” for “pipette prepared”, “for mortality,” for “for”, “effect and growth inhibition” for “effect”

[10] = system: Plutella xylostella (Diamond Back Moth); experiment: Example B12: Plutella xylostella, treated artificial diet, mortality; settings: 120 h, application rate of 200 ppm, L2 larvae, 5 days after infestation
Procedure: (§4) 24-well microtiter plates with artificial diet were treated with aqueous test solutions prepared from 10,000 ppm DMSO stock solutions by pipetting. After drying, the plates were infested with L2 larvae (10 to 15 per well). The samples were assessed for mortality 5 days after infestation.

[11] = system: Diabrotica balteata (Corn Root Worm); experiment: Example B3: Diabrotica balteata, sprayed maize sprouts, mortality; settings: 96 h, application rate of 200 ppm, L2 larvae, 4 days after infestation
Procedure: as §3, with “mortality” for “mortality and growth inhibition in comparison to untreated samples”

[12] = system: Spodoptera littoralis (Egyptian Cotton Leaf Worm); experiment: Example B17: Spodoptera littoralis, sprayed cotton leaf discs, mortality, anti-feeding effect and growth inhibition; settings: foliar, 72 h, application rate of 200 ppm, L1 larvae, 3 days after infestation, read-out: control (at least one of mortality, anti-feedant effect, growth inhibition)
Procedure: Cotton leaf discs were placed onto agar in 24-well microtiter plates and sprayed with aqueous test solutions prepared from 10,000 ppm DMSO stock solutions. After drying the leaf discs were infested with five L1 larvae. The samples were assessed for mortality, anti-feeding effect, and growth inhibition in comparison to untreated samples 3 days after infestation. Control of Spodoptera littoralis by a test sample is given when at least one of the categories mortality, anti-feedant effect, and growth inhibition is higher than the untreated sample.

[13] = system: Plutella xylostella (Diamond Back Moth); experiment: Example B13: Plutella xylostella, treated artificial diet, mortality and growth inhibition; settings: 120 h, application rate of 200 ppm, L2 larvae, 5 days after infestation, read-out: effect in at least one of the two categories (mortality or growth inhibition)
Procedure: as §4, with “mortality and growth inhibition in comparison to untreated samples” for “mortality”

[14] = system: Frankliniella occidentalis (Western Flower Thrips); experiment: Example B7: Frankliniella occidentalis, sprayed sunflower leaf discs, mortality; settings: foliar, 168 h, application rate of 200 ppm, population of mixed ages, 7 days after infestation
Procedure: as §2, with “Sunflower” for “Cotton”, “on” for “onto”, “10,000” for “10,000 ppm”, “a Frankliniella population of mixed ages.” for “five L1 larvae.”, “7” for “3”

[15] = system: Myzus persicae (Green Peach Aphid); experiment: Example B8: Myzus persicae, sprayed sunflower leaf discs, mortality; settings: foliar, 144 h, application rate of 200 ppm, leaf disc spray, aphid population of mixed ages, 6 days after infestation
Procedure: Sunflower leaf discs were placed onto agar in a 24-well microtiter plate and sprayed with aqueous test solutions prepared from 10,000 ppm DMSO stock solutions. After drying, the leaf discs were infested with an aphid population of mixed ages. The samples were assessed for mortality 6 days after infestation.

[16] = system: Plutella xylostella (Diamond Back Moth); experiment: Example B10: Plutella xylostella, treated artificial diet, growth inhibition; settings: 120 h, application rate of 200 ppm, L2 larvae, 5 days after infestation
Procedure: as §4, with “growth inhibition in comparison to untreated samples” for “mortality”, “infestation. Control of Plutella xylostella by a test sample is given when the growth inhibition is higher than the untreated sample.” for “infestation.”

CCS(=O)(=O)c1cc(-c2ccc(C(F)(F)F)cc2)cnc1-c1cn2cnc(C(F)(F)F)cc2n1 [Compound P6, 2-[3-ethylsulfonyl-5-[4-(trifluoromethyl)phenyl]-2-pyridyl]-7-(trifluoromethyl)imidazo[1,2-c]pyrimidine]
≥ 80%: percent effect (mortality or growth inhibition) at 200 ppm [1] | mortality at 12.5 ppm [2] | pest or weed control at 200 ppm [3] | pest or weed control at 200 ppm [4] | mortality at 200 ppm [5] | pest or weed control at 12.5 ppm [6] | mortality at 200 ppm [7] | percent effect (mortality or growth inhibition) at 200 ppm [8] | percent effect (mortality, anti-feeding or growth inhibition) at 12.5 ppm [9] | mortality at 200 ppm [10] | mortality at 200 ppm [11] | percent control (mortality, anti-feedant effect or growth inhibition) at 200 ppm [12] | percent effect (mortality or growth inhibition) at 200 ppm [13]

CCS(=O)(=O)c1cc(-c2ccc(Cl)cc2)ccc1-c1cn2cnc(C(F)(F)F)cc2n1 [Compound P3]
≥ 80%: pest or weed control at 200 ppm [3] | mortality at 200 ppm [7] | percent effect (mortality or growth inhibition) at 200 ppm [8] | mortality at 200 ppm [11] | percent control (mortality, anti-feedant effect or growth inhibition) at 200 ppm [12]

CCS(=O)(=O)c1cc(-c2ccc(F)cc2F)cnc1-c1cn2cnc(C(F)(F)F)cc2n1 [Compound P11]
≥ 80%: mortality at 200 ppm [14] | percent effect (mortality or growth inhibition) at 200 ppm [1] | mortality at 12.5 ppm [2] | mortality at 200 ppm [15] | pest or weed control at 200 ppm [3] | mortality at 200 ppm [5] | pest or weed control at 12.5 ppm [6] | mortality at 200 ppm [7] | percent effect (mortality or growth inhibition) at 200 ppm [8] | percent effect (mortality, anti-feeding or growth inhibition) at 12.5 ppm [9] | mortality at 200 ppm [10] | mortality at 200 ppm [11] | percent control (mortality, anti-feedant effect or growth inhibition) at 200 ppm [12] | percent effect (mortality or growth inhibition) at 200 ppm [13]

CCS(=O)(=O)c1cc(-c2ccc(OC(F)(F)F)cc2)cnc1-c1cn2cnc(C(F)(F)F)cc2n1 [Compound P12]
≥ 80%: percent effect (mortality or growth inhibition) at 200 ppm [1] | mortality at 12.5 ppm [2] | pest or weed control at 200 ppm [3] | pest or weed control at 200 ppm [4] | mortality at 200 ppm [5] | pest or weed control at 12.5 ppm [6] | mortality at 200 ppm [7] | percent effect (mortality or growth inhibition) at 200 ppm [8] | percent effect (mortality, anti-feeding or growth inhibition) at 12.5 ppm [9] | mortality at 200 ppm [10] | mortality at 200 ppm [11] | percent control (mortality, anti-feedant effect or growth inhibition) at 200 ppm [12] | percent effect (mortality or growth inhibition) at 200 ppm [13]

CCS(=O)(=O)c1cc(-c2ccc(C(F)(F)F)cc2)ccc1-c1cn2cnc(C(F)(F)F)cc2n1 [Compound P2, 2-[2-ethylsulfonyl-4-[4-(trifluoromethyl)phenyl]phenyl]-7-(trifluoromethyl)imidazo[1,2-c]pyrimidine]
≥ 80%: pest or weed control at 200 ppm [3] | pest or weed control at 200 ppm [4] | mortality at 200 ppm [7] | percent effect (mortality or growth inhibition) at 200 ppm [8] | mortality at 200 ppm [10] | mortality at 200 ppm [11] | percent control (mortality, anti-feedant effect or growth inhibition) at 200 ppm [12] | percent effect (mortality or growth inhibition) at 200 ppm [13]

CCS(=O)(=O)c1cc(-n2ccc(C(F)(F)F)n2)ccc1-c1cn2cnc(C(F)(F)F)cc2n1 [Compound P1, 2-[2-ethylsulfonyl-4-[3-(trifluoromethyl)pyrazol-1-yl]phenyl]-7-(trifluoromethyl)imidazo[1,2-c]pyrimidine]
≥ 80%: inhibition at 200 ppm [16] | percent effect (mortality or growth inhibition) at 200 ppm [1] | mortality at 12.5 ppm [2] | mortality at 200 ppm [15] | pest or weed control at 200 ppm [3] | pest or weed control at 200 ppm [4] | mortality at 200 ppm [5] | pest or weed control at 12.5 ppm [6] | mortality at 200 ppm [7] | percent effect (mortality or growth inhibition) at 200 ppm [8] | percent effect (mortality, anti-feeding or growth inhibition) at 12.5 ppm [9] | mortality at 200 ppm [10] | mortality at 200 ppm [11] | percent control (mortality, anti-feedant effect or growth inhibition) at 200 ppm [12] | percent effect (mortality or growth inhibition) at 200 ppm [13]
